How the values were obtained:
[1] = tested on: EphA2; test: EphA2 tyrosine phosphorylation in COS7 cells; format: cell-based; settings: for tyrosine phosphorylation of endogenous EphA2: COS7 cells stimulated with ephrin-A1 Fc
Protocol: FIGS. 6A-6F. A. HT22 neuronal cells pretreated with the indicated concentrations of compounds 1 or 2 for 15 min were stimulated with 0.5 μg/mL ephrin-A5 Fc (+) or Fc as a control (−) for 20 min in the continued presence of the compounds. EphA4 immunoprecipitates were probed with anti-phosphotyrosine antibody (PTyr) and reprobed for EphA4. C indicates immunoprecipitations performed with control antibodies from non-immunized rabbits. […] Error bars represent the standard error from 4 experiments for compound 1 and 3 experiments for compound 2. […] C. COS7 cells pretreated with the indicated concentrations of compounds 1 or 2 for 15 min were stimulated with 0.1 μg/mL ephrin-A1 Fc or Fc as a control in the continued presence of the compounds. EphA2 immunoprecipitates were probed with anti-phosphotyrosine antibody (PTyr) and reprobed for EphA2. C indicates immunoprecipitations performed with control antibodies. […] Error bars represent the standard error from 2 experiments. Statistical analyses were performed as in (B). HUVE cells were left unstimulated or stimulated with TNFα for 2 hours in the presence of 400 μM compound 1. Duplicate untreated samples are shown. C indicates immunoprecipitations performed with control antibodies. EphA2 immunoprecipitates were probed with anti-phosphotyrosine antibody (PTyr) and reprobed for EphA2. Levels of EphA2 phosphorylation quantified from immunoblots and normalized to the amount of immunoprecipitated EphA2 were also performed. […] The same protocol described in (C) was used, except that COS7 cells were stimulated with 0.5 μg/mL of ephrin-B2 Fc and the EphB2 receptor was immunoprecipitated. F. COS7 cells pretreated with the indicated concentrations of compounds 1 or 2 were stimulated with EGF (+) or left unstimulated (−). Lysates were probed with anti-phosphotyrosine antibody (PTyr) and reprobed for the EGF receptor.
Measurement of Receptor Tyrosine Phosphorylation in Cells—HT22 neuronal cells, which endogenously express EphA4, are derived from immortalized mouse hippocampal neurons (Li et al. (1997) Neuron 19(2), 453-463). COST cells, which endogenously express EphA2, EphB2 and the EGF receptor (EGFR), were obtained from ATCC. Both cell lines were grown in Dulbecco's Modified Eagle's Medium (DMEM) (Mediatech, Inc, Herndon, Va.) with 10% fetal bovine serum (FBS) (Hyclone, Logan, Utah) and Pen/Strep. For EphA4 immunoprecipitations, HT22 cells were serum-starved overnight in 0.5% FBS in DMEM and incubated for 15 min with the compounds or DMSO as a control. The cells were then stimulated with 0.5 μg/mL ephrin-A5 Fc, ephrin-A4 Fc or Fc for 20 min in the continued presence of the compounds. […] The protein concentration was calculated using the BCA protein assay kit (Pierce Biotecnology, Rockford, Ill.). […]

[2] = tested on: retinal neurons; test: Growth cone collapse assay, nasal retina explants; format: cell-based, chicken; settings: for ephrin-A5 Fc induced growth cone collapse: 1 μg/mL ephrin-A5 Fc, 400 μM compound, 5 μM KYL peptide; for shape of unstimulated growth cones: concentrations as high as 400 μM
Protocol: FIGS. 8A-8F. Compounds 1 and 2 block EphA4-dependent growth cone collapse in retinal neurons. A. Explants from embryonic day 6 chicken embryonic were preincubated with 5 μM KYL peptide for 15 min, stimulated for 30 min with 1 μg/mL ephrin-A5 Fc or Fc as a control in the continued presence of the peptide, and stained with rhodamine-phalloidin to label filamentous actin. B. Histogram showing the mean percentages of collapsed growth cones. Growth cones were scored as collapsed when no lamellipodia or filopodia were visible at the tip of the neurite. Approximately 30-200 growth cones per condition were scored in each experiment and error bars indicate standard error from 3 independent experiments. C-F. Experiments were performed as in (A), except that retinal explants were treated with 400 μM compound 1 (C,D) or compound 2 (E,F). Approximately 80-250 growth cones per condition were scored in each experiment, and error bars indicate standard error from 3 experiments. Collapsed growth cones under different conditions were compared to those in the Fc control condition by one-way ANOVA and Dunnett's post test. *P<0.05 and **P<0.01. Scale bars in (A), (C), (E)=[…].
Growth Cone Collapse Assay—Nasal retina explants from embryonic day 6 chicken embryos were cultured on coverslips coated with 200 μg/mL poly-L-lysine and 20 μg/mL lamining for 12 to 24 hours in DMEM/F-12 culture medium containing 10% FBS and 0.4% methylcellulose. Three hours before adding the Fc fusion proteins, the medium was changed to DMEM/F-12 without methylcellulose. The explants were incubated for 15 min with the KYL peptide or the chemical compounds and then stimulated for 30 min with 1 μg/mL preclustered ephrin-A5 Fc or Fc as a control. The cultures were fixed for 30 min in 4% paraformaldehyde/4% sucrose in phosphate buffered saline (PBS), permeabilized in 0.1% Triton X-100 in PBS and stained with rhodamine-conjugated phalloidin (Invitrogen, Carlsbad, Calif.). Cells were photographed under a fluorescence microscope and growth cones where scored in a blinded manner as collapsed when no lamellipodia or filopodia were present at the tip of the neurite.

[3] = molecular target: EphA2 (Homo sapiens, UniProt P29317); test: EphA2 tyrosine phosphorylation in HUVE endothelial cells treated with TNFα; format: cell-based; parameters: endogenous in cells
Protocol: FIGS. 6A-6F. A. HT22 neuronal cells pretreated with the indicated concentrations of compounds 1 or 2 for 15 min were stimulated with 0.5 μg/mL ephrin-A5 Fc (+) or Fc as a control (−) for 20 min in the continued presence of the compounds. EphA4 immunoprecipitates were probed with anti-phosphotyrosine antibody (PTyr) and reprobed for EphA4. C indicates immunoprecipitations performed with control antibodies from non-immunized rabbits. […] Error bars represent the standard error from 4 experiments for compound 1 and 3 experiments for compound 2. […] C. COS7 cells pretreated with the indicated concentrations of compounds 1 or 2 for 15 min were stimulated with 0.1 μg/mL ephrin-A1 Fc or Fc as a control in the continued presence of the compounds. EphA2 immunoprecipitates were probed with anti-phosphotyrosine antibody (PTyr) and reprobed for EphA2. C indicates immunoprecipitations performed with control antibodies. […] Levels of EphA2 phosphorylation quantified from immunoblots and normalized to the amount of immunoprecipitated EphA2 were also performed. […]
Measurement of Receptor Tyrosine Phosphorylation in Cells—HT22 neuronal cells, which endogenously express EphA4, are derived from immortalized mouse hippocampal neurons (Li et al. (1997) Neuron 19(2), 453-463). […] The protein concentration was calculated using the BCA protein assay kit (Pierce Biotecnology, Rockford, Ill.). […]

EphA2 (Homo sapiens, UniProt P29317), sequence (P29317 24-976): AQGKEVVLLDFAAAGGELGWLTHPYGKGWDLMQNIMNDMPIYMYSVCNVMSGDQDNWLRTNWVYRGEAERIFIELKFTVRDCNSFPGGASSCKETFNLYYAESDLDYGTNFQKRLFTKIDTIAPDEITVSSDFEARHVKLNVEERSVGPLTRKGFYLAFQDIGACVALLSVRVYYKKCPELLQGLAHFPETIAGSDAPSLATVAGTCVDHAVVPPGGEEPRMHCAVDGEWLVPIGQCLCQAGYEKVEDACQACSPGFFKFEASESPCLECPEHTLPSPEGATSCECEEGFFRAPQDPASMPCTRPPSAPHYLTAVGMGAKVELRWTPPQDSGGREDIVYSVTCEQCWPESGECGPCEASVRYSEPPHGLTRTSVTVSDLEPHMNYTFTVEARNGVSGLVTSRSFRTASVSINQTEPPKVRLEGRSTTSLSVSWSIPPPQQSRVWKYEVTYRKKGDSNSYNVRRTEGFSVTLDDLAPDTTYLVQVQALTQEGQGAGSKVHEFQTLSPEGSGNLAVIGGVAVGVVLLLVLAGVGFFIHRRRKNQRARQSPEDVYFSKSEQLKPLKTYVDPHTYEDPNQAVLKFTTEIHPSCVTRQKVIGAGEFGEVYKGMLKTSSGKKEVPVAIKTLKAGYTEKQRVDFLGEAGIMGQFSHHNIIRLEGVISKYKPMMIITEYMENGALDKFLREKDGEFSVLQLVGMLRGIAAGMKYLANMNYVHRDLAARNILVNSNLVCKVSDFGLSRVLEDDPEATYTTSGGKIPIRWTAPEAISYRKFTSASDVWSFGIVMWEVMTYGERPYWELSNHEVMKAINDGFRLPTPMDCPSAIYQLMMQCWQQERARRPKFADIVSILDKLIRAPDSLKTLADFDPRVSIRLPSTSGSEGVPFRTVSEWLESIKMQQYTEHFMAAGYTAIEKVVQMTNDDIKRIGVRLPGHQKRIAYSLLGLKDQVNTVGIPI

SMILES: Cc1ccc(C)n1-c1ccc(O)c(C(=O)O)c1 [compound 2, 5-(2,5 dimethyl-pyrrol-1-yl)-2-hydroxy-benzoic acid]
- ephrin-dependent degradation of EphA2 [1]: prevented
- tyrosine phosphorylation of endogenous EphA2 [1]: inhibited
- ephrin-A5 Fc induced growth cone collapse [2]: block
- shape of unstimulated growth cones [2]: neither the KYL peptide nor the two compounds at concentrations as high as 400 μM affected the shape
- tyrosine phosphorylation of endogenous EphA2 [3]: inhibited

SMILES: Cc1ccc(C)n1-c1ccc(C(=O)O)c(O)c1 [compound 1, 4-(2,5-dimethyl-pyrrol-1-yl)-2-hydroxy-benzoic acid]
- ephrin-dependent degradation of EphA2 [1]: prevented
- tyrosine phosphorylation of endogenous EphA2 [1]: inhibited
- ephrin-A5 Fc induced growth cone collapse [2]: block
- ephrin-A5 Fc induced growth cone collapse ([2]; listed as Compound 1): blocked
- shape of unstimulated growth cones [2]: neither the KYL peptide nor the two compounds at concentrations as high as 400 μM affected the shape
- tyrosine phosphorylation of endogenous EphA2 [3]: inhibited
